Laboratory results as given in patent publication US10208056B2, “Condensed tricyclic compounds as protein kinase inhibitors” (FUNDACIÓN DEL SECTOR PÚBLICO ESTATAL CENTRO NACIONAL DE …, priority 2015, dated 2019).
Like-named read-outs stand apart in the source and are kept apart here.

Key:
SW620 [1] = test: Combination assay, SW620; format: cell-based, human; details: SW620, chemotherapeutic alone, read-out: Chemo GI50
Experimental: (§1) The combination index (CI) of combinations of certain example compounds and various chemotherapeutic agents in the CellTitetI-Glo® in vitro cell proliferation assays may be tested. A combination index score is calculated by the Chou and Talalay method (CalcuSyn software, Biosoft). The strength of synergy is scored using the ranking system Chou and Talalay: CI less than 0.8 indicates synergy, CI between 0.8 and 1.2 indicates additivity and CI greater than 1.2 indicates antagonism.
(§2) The EC50 values of representative combinations are also calculated. The individually measured EC50 values of the chemotherapeutic agent and the example compounds are compared to the EC50 value of the combination. The cell lines are characterised by tumor type. Combination assays are performed as described in: “Pim 1 kinase inhibitor ETP-45299 suppresses cellular proliferation and synergizes with PI3K inhibition”. Blanco-Aparicio, Carmen; Collazo, Ana Maria Garcia; Oyarzabal, Julen; Leal, Juan F.; Albaran, Maria Isabel; Lima, Francisco Ramos; Pequeno, Belen; Ajenjo, Nuria; Becerra, Mercedes; Alfonso, Patricia; Reymundo, Maria Isabel; Palacios, Irene; Mateos, Genoveva; Quinones, Helena; Corrionero, Ana; Carnero, Amancio; Pevarello, Paolo; Lopez, Ana Rodriguez; Fominaya, Jesus; Pastor, Joaquin; Bischoff, James R. Cancer Letters (Shannon, Ireland) 2011, 300(2), 145-153

intracellular CDK8 = intracellular CDK8 (Homo sapiens (Human), UniProt P49336); test: Endogenous phosphoSTAT1 inhibition in SW620 cells growing in 10% FBS; format: cell-based; details: semiquantitative, read-out: SW620 P-STAT1(S727)
Experimental: Endogenous phosphoSTAT1 inhibition can be screened in cells growing in 10% FBS. Cells are plated as described before and treated for 8 h with compounds as described before. Then cells are lysated and phospho STAT1 is evaluated as described before. The percentage of phosphorylated STAT1 vs total STAT1 in cells treated with DMSO is taken as hundred percent of phosphorylation. The percentage of STAT1 phosphorylation is finally plotted against concentration for each compound and EC50s for intracellular CDK8 inhibition are calculated using ActivityBase from IDBS.

CDK19/Cyclin C = CDK19/Cyclin C (Homo sapiens (Human), UniProt Q9BWU1); test: CDK19/Cyclin C binding assay (LanthaScreen Eu-Kinase Binding Assay); details: read-out: CDK19-CYCC IC50
Experimental: The binding assay relies on the LanthaScreen™ Eu-Kinase Binding Assay (Invitrogen).
Assay conditions were as indicated by the kit manufacturers with the following adaptations: • Assay buffer: 50 mM HEPES, pH 7.5, 1 mM EGTA, 0.01% Brij-35, 10 mM MgCl2 • Assay volume: 20 μl • Incubation time and temperature: 60 min at 25° C. • Cdk19-Cyclin C concentration: 2 nM • Tracer concentration: 20 nM • (Eu)-labelled anti-GST antibody concentration: 2 nM • Tested compound: Serial 1:3 dilutions • Final DMSO concentration in the assay: 1%
(§3) Assays were performed in 384-well plates. The final read out was generated using an EnVision plate reader (Perkin-Elmer).

CDK8/Cyclin C = CDK8/Cyclin C (Homo sapiens (Human), UniProt P49336); test: CDK8/Cyclin C binding assay (LanthaScreen Eu-Kinase Binding Assay); details: binding assay
Experimental: The enzyme has been purchase from Invitrogen (PV4402) as a dimer of full-length His-tagged recombinant human proteins.
as §3

MDA-MB-231 = test: In vitro cell proliferation assay (CellTiter-Glo), MDA-MB-231; format: cell-based; details: Homo sapiens
Experimental: (§4) The in vitro potency of the compounds was measured by the cell proliferation assay CellTiter-Glo® Luminescent Cell Viability Assay, commercially available from Promega Corp., Madison, Wis. This homogeneous assay method is based on the recombinant expression of Coleoptera luciferase (U.S. Pat. No. 5,583,024; U.S. Pat. No. 5,674,713; U.S. Pat. No. 5,700,670) and determines the number of viable cells in culture based on quantitation of the ATP present, an indicator of metabolically active cells (Crouch et al (1993) J. Immunol. Meth. 160:81-88; U.S. Pat. No. 6,602,677). The CellTiterGlo® Assay was conducted […] it amenable to automated high throughput screening (HTS) (Cree et al (1995) AntiCancer Drugs 6:398-404).
(§5) The homogeneous assay procedure involves adding the single reagent (CellTiter-Glo® Reagent) directly to cells cultured in serum-supplemented medium. Cell washing, removal of medium and multiple pipetting steps are not required. The system detects as few as 15 cells/well in a 96-well format in 10 minutes after adding reagent and mixing.
(§6) The homogeneous “add-mix-measure” format results in cell lysis and generation of a luminescent signal proportional to the amount of ATP present. The amount of ATP is directly proportional to the number of cells present in culture. The CellTiter-Glo® Assay generates a “glow-type” luminescent signal, produced by the luciferase reaction, which has a half-life generally greater than five hours, depending on cell type and medium used. Viable cells are reflected in relative luminescence units (RLU). The substrate, Beetle Luciferin, is oxidatively decarboxylated by recombinant firefly luciferase with concomitant conversion of ATP to AMP and generation of photons. The extended half-life eliminates the need to use reagent injectors and provides flexibility for continuous or batch mode processing of multiple plates. This cell proliferation assay can be used with various multiwell formats, e.g. 96 or 384 well format. Data can be recorded by luminometer or CCD camera imaging device. The luminescence output is presented as relative light units (RLU), measured over time.

MV4:11 = test: In vitro cell proliferation assay (CellTiter-Glo), MV4:11; format: cell-based; details: Homo sapiens
Experimental: as §4, §5, §6

Molm13 = test: In vitro cell proliferation assay (CellTiter-Glo), Molm13; format: cell-based; details: Homo sapiens
Experimental: as §4, §5, §6

SW620 [2] = test: In vitro cell proliferation assay (CellTiter-Glo), SW620; format: cell-based, human; details: Homo sapiens
Experimental: as §4, §5, §6

Haspin kinase = Haspin kinase (Homo sapiens (Human), UniProt Q8TF76); test: Haspin kinase assay (ADP-Glo); format: biochemical; details: ATP 150 μM
Description: The kinase assay relies on ADP-Glo^KM biochemical kinase assay (Promega). This is a luminescent kinase assay that measures ADP formed from a kinase reaction. Then ADP is converted into ATP, which is transformed into a light signal by Ultra-Glo™ Luciferase. The luminescent signal positively correlates with kinase activity. The assay measures the intrinsic ATPase activity (in the absence of peptidic substrate as phosphate acceptor).
The enzyme was purchase from Invitrogen (PV5708) as the kinase domain of GST tagged recombinant human proteins.
Assay conditions were as indicated by the kit manufacturers with the following adaptations: • Assay buffer: 15 mM HEPES pH 7.4, 20 mM NaCl, 1 mM EGTA, 0.02% Tween 20, 10 mM MgCl2, 0.1 mg/ml BGG • Assay volume: 20 μl • Incubation time and temperature: 60 min at 30° C. • Haspin concentration: 20 nM • ATP concentration: 150 μM • Tested compound: Serial 1:3 dilutions • Final DMSO concentration in the assay: 1%
Assays were performed in 384-well plates. The final read out was generated using an EnVision plate reader (Perkin-Elmer). Luminescent relative units are normalized against the control activity included for each compound (i.e., 100% Haspin activity, without compound) and the percentage of inhibition is calculated.

HCT116 = test: Combination assay, HCT116; format: cell-based; details: Homo sapiens, HCT-116; HCT116, chemotherapeutic alone; read-out: Chemo GI50
Experimental: as §1, §2

[3] = MDA-MB-231, growth inhibition, semiquantitative, read-out: GI50 MDA-MB-231
[4] = MV4-11, growth inhibition, semiquantitative, read-out: GI50 MV4:11
[5] = MOLM-13, growth inhibition, semiquantitative, read-out: GI50 Molm13
[6] = SW-620, growth inhibition, semiquantitative, read-out: GI50 SW620

CDK8/Cyclin C, sequence (P49336 whole entry): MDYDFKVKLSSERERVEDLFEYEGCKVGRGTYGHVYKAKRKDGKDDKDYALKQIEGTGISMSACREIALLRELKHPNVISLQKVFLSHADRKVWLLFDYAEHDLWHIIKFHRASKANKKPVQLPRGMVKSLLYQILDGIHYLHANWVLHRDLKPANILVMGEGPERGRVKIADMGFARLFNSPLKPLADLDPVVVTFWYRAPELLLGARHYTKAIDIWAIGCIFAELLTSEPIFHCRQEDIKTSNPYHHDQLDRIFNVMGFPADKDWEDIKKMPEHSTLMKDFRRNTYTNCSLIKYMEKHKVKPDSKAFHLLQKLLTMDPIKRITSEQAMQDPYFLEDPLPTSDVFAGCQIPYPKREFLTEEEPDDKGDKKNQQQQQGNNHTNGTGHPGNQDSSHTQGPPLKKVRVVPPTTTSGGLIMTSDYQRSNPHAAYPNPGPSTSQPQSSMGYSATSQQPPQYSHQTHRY
CDK8/Cyclin C, sequence (P24863 whole entry partner): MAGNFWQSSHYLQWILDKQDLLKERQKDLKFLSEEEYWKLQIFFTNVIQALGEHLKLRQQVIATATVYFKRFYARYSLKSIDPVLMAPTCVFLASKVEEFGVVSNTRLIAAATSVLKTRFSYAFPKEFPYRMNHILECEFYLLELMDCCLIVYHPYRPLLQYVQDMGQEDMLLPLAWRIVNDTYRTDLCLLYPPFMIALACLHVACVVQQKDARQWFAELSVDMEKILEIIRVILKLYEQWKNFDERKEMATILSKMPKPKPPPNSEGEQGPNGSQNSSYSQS
intracellular CDK8, sequence (P49336 whole entry): as the sequence (P49336 whole entry) above
intracellular CDK8, sequence (P24863 whole entry partner): as the sequence (P24863 whole entry partner) above
intracellular CDK8, sequence (Q93074 whole entry partner): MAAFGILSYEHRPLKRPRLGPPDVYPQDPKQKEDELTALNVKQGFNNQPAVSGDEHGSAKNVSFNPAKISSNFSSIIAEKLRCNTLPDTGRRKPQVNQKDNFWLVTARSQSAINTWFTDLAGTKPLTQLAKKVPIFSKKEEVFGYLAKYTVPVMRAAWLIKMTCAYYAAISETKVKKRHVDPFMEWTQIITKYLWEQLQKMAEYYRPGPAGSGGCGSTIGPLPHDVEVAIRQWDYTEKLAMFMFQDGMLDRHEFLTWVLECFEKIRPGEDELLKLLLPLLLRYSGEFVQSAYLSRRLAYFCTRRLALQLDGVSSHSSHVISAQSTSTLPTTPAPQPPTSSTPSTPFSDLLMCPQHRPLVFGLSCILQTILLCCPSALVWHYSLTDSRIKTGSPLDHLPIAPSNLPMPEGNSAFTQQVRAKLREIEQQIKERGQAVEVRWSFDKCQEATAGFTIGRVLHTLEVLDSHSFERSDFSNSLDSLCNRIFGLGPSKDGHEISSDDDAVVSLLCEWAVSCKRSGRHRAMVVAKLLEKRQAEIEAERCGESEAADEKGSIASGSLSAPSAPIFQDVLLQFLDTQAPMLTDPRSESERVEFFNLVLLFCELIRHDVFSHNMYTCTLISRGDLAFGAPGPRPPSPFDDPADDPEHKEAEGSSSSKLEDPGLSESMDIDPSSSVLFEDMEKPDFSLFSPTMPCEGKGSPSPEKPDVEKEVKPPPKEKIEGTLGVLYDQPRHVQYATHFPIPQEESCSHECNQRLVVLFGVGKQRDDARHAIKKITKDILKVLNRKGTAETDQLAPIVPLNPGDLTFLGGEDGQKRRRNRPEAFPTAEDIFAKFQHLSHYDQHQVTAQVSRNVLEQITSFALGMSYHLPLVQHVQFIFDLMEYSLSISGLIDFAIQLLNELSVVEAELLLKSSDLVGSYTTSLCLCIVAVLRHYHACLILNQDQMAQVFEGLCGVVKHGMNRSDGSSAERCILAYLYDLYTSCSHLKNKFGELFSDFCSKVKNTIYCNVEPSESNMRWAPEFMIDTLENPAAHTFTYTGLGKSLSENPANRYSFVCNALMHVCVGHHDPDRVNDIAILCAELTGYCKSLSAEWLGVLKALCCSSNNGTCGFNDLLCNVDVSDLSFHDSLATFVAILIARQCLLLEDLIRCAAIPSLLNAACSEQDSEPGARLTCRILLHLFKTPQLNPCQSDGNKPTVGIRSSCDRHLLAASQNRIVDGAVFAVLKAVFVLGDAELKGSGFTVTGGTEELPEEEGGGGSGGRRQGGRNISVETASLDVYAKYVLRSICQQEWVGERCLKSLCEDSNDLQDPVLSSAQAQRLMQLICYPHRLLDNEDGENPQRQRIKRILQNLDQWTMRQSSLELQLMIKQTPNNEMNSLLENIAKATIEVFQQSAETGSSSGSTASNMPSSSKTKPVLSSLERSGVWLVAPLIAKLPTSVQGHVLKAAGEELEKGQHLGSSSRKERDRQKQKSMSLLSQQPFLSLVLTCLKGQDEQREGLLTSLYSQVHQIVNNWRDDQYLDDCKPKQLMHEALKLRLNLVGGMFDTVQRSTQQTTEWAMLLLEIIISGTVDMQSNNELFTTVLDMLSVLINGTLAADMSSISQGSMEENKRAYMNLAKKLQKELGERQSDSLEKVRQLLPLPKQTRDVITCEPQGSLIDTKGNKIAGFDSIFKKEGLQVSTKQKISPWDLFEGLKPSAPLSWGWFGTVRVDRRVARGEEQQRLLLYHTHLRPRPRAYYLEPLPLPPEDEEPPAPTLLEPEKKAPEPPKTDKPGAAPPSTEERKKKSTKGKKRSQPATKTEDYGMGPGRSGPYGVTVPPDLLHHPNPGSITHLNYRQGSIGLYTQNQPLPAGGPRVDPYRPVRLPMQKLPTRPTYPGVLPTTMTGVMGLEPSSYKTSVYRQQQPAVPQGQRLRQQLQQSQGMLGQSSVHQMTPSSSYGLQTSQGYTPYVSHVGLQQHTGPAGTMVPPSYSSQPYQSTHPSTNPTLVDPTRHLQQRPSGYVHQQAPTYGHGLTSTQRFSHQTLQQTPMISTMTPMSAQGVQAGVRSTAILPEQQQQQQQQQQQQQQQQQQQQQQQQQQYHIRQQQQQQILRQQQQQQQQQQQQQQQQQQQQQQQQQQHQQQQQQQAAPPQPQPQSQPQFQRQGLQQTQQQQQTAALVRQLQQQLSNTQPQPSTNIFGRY
CDK19/Cyclin C, sequence (Q9BWU1 whole entry): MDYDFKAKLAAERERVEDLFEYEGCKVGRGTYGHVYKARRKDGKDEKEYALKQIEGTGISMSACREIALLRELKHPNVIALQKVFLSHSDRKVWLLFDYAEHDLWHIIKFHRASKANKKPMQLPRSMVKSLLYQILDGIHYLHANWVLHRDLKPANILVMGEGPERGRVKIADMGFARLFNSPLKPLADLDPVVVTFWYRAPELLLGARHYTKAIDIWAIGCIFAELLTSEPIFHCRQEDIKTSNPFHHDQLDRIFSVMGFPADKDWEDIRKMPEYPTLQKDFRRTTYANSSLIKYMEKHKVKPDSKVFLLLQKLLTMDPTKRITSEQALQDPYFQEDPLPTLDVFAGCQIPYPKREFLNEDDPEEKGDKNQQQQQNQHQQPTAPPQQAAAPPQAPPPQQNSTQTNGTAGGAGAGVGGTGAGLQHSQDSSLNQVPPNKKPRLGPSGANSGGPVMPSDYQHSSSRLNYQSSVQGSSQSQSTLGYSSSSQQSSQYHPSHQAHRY
CDK19/Cyclin C, sequence (P24863 whole entry partner): as the sequence (P24863 whole entry partner) above
Haspin kinase, sequence (Q8TF76 484-798): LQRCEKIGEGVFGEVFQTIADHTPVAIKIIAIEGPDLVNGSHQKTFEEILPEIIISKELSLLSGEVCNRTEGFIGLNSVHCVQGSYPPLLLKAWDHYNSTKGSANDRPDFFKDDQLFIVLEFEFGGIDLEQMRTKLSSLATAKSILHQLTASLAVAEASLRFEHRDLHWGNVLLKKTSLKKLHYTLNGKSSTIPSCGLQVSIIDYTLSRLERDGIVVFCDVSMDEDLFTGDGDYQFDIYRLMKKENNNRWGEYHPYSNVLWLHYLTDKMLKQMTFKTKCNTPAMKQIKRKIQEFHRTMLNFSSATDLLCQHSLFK

| SMILES | GI50 (SW620 [1]; Homo sapiens, SW-620) [nM] | EC50 (intracellular CDK8) [nM] | IC50 (CDK19/Cyclin C) [nM] | IC50 (CDK8/Cyclin C) [nM] | GI50 (MDA-MB-231; [3]) [µM] | GI50 (MV4:11; [4]) [nM] | GI50 (Molm13; [5]) [nM] | GI50 (SW620 [2]; [6]) [µM] | IC50 (Haspin kinase) [nM] | GI50 (HCT116) [nM] | GI50 (MDA-MB-231; MDA-MB-231, read-out: GI50 MDA-MB-231) [µM] | GI50 (MV4:11; MV4-11, read-out: GI50 MV4:11) [nM] | GI50 (Molm13; MOLM-13, read-out: GI50 Molm13) [nM] | GI50 (SW620 [2]; SW-620, read-out: GI50 SW620) [µM] | GI50 (SW620 [1]) [nM] |
| --- | --- | --- | --- | --- | --- | --- | --- | --- | --- | --- | --- | --- | --- | --- | --- |
| COc1ccc(S(=O)(=O)Nc2cccnc2Nc2ccc(O)cc2)cc1 [ABT-751, reference compound] | 500 | – | – | – | – | – | – | – | – | – | – | – | – | – | – |
| NC(=O)c1cc2c([nH]1)-c1ccncc1OC21CCN(CC(F)(F)F)CC1 [Example 18] | – | – | 40.5 | 20.2 | 10 to 100 | 1000 to 10000 | 1000 to 10000 | 10 to 100 | 344 | – | – | – | – | – | – |
| Cn1c(C(N)=O)cc2c1-c1ccncc1OC2(C)C [Example 22] | – | – | 1.41 | 1.98 | – | – | – | – | 87.4 | – | 1 to 10 | < 1000 | 1000 to 10000 | 10 to 100 | – |
| NC(=O)c1cc2c([nH]1)-c1ccncc1OC21CCN(CCc2ccccc2)CC1 [Example 46] | – | – | 585 | 445 | 1 to 10 | < 1000 | < 1000 | 1 to 10 | 81.3 | – | – | – | – | – | – |
| CC1(C)Oc2cnccc2-c2[nH]c(C(N)=O)c(C3CC3)c21 [Example 86] | – | < 500 | 0.48 | 4.33 | 1 to 10 | < 1000 | 1000 to 10000 | 1 to 10 | 34.5 | – | – | – | – | – | – |
| O=C1[O][Pt]2([NH][C@@H]3CCCC[C@H]3[NH]2)[O]C1=O [Oxaliplatin, oxaliplatin, reference compound] | – | – | – | – | – | – | – | – | – | – | – | – | – | – | 5000 |
| CC(=O)O[C@H]1C(=O)[C@@]2(C)[C@H]([C@H](OC(=O)c3ccccc3)[C@]3(O)C[C@H](OC(=O)[C@H](O)[C@@H](NC(=O)c4ccccc4)c4ccccc4)C(C)=C1C3(C)C)[C@]1(OC(C)=O)CO[C@@H]1C[C@@H]2O [Taxol, paclitaxel, reference compound] | 5 | – | – | – | – | – | – | – | – | 5 | – | – | – | – | – |

The next lines start with results.

| GI50 (SW620 [1]; Homo sapiens, SW-620) [nM] | EC50 (intracellular CDK8) [nM] | IC50 (CDK19/Cyclin C) [nM] | IC50 (CDK8/Cyclin C) [nM] | GI50 (MDA-MB-231; [3]) [µM] | GI50 (MV4:11; [4]) [nM] | GI50 (Molm13; [5]) [nM] | GI50 (SW620 [2]; [6]) [µM] | IC50 (Haspin kinase) [nM] | GI50 (HCT116) [nM] | SMILES | GI50 (MDA-MB-231; MDA-MB-231, read-out: GI50 MDA-MB-231) [µM] | GI50 (MV4:11; MV4-11, read-out: GI50 MV4:11) [nM] | GI50 (Molm13; MOLM-13, read-out: GI50 Molm13) [nM] | GI50 (SW620 [2]; SW-620, read-out: GI50 SW620) [µM] | GI50 (SW620 [1]) [nM] |
| --- | --- | --- | --- | --- | --- | --- | --- | --- | --- | --- | --- | --- | --- | --- | --- |
| – | < 500 | 1.41 | 1.96 | 1 to 10 | < 1000 | < 1000 | 10 to 100 | 15.9 | – | NC(=O)c1cc2c([nH]1)-c1ccncc1OC21CCC1 [Example 15] | – | – | – | – | – |
| – | < 500 | 0.827 | 0.262 | 1 to 10 | < 1000 | < 1000 | 1 to 10 | 24.2 | – | NC(=O)c1cc2c(n1CCF)-c1ccncc1OC21CCC1 [Example 76] | – | – | – | – | – |
| – | < 500 | 0.77 | 0.314 | 1 to 10 | < 1000 | < 1000 | 1 to 10 | – | – | CCn1c(C(N)=O)cc2c1-c1ccncc1OC21CCCCC1 [Example 80] | – | – | – | – | – |
| – | – | 6.1 | 3.83 | 1 to 10 | < 1000 | < 1000 | 1 to 10 | 138 | – | Cn1c(C(N)=O)cc2c1-c1ccncc1OC21CCOCC1 [Example 81] | – | – | – | – | – |
| – | < 500 | 1.41 | 0.278 | 1 to 10 | < 1000 | < 1000 | 1 to 10 | 9.8 | – | Cn1c(C(N)=O)cc2c1-c1ccncc1OC21CCCCC1 [Example 83] | – | – | – | – | – |
| – | – | 20.9 | 14.2 | 10 to 100 | 1000 to 10000 | 10000 to 100000 | 10 to 100 | 136 | – | COCCn1c(C(N)=O)cc2c1-c1ccncc1OC21CCOCC1 [Example 87] | – | – | – | – | – |
